Experimental data as given in patent US9877956B2, “Antiviral compounds and methods of use thereof” (Trana Discovery, Inc., priority 2014, dated 2018).
≈ marks a conversion by molar mass, not a printed value. Where “and” joins values, the source holds several entries; their conditions need not be identical. Identical values can stand only once.

Columns and labels:
Assay type in all cases: cell-based
HIV-1/Ba-L = assay: Inhibition of HIV-1 Ba-L replication in PBMC (RT values); conditions: for % VC: RT relative to virus control; for RT Values (cpm), SAMPLE: individual samples
Method: These compounds were further screened for activity in HIV-1-infected peripheral blood mononuclear cells (PBMC). The data (experiments were repeated, so duplicates are shown) is summarized in the tables below, and also in FIGS. 4A-B and 5A-B.
The HIV strain was HIV-1/Ba-L. The titer was 0.1 μL/well.

HUMAN PBMCS = assay: Cytotoxicity in human PBMCs (XTT); conditions: for TOXICITY VALUES (XTT - O.D. @ 450/650 nm), SAMPLE: individual samples, listed as Trana 156
Method: (§1) In these studies, PHA-P stimulated PBMCs from three donors were pooled together and re-suspended in fresh tissue culture medium at 1×10^6 cells/mL and plated in the interior wells of a 96 well round bottom microplate at 50µl/well. A 100µL volume of 9 concentrations of compound serially diluted were transferred to the round-bottom 96 well plate containing the cells in triplicate. Fifty microliters (µL) of HIV-1 at a pre-determined dilution was added. Each plate contained cell control wells and virus control wells in parallel with the experimental wells. After 7 days in culture, efficacy was evaluated by measuring the reverse transcriptase in the culture supernatants and the cells were stained with the tetrazolium dye XTT to evaluate cytotoxicity.

HIV-1 92/HT/599 = HIV-1 92/HT/599 replication in human PBMCs, reverse transcriptase in culture supernatants (RLU); conditions: 0.32 μg/ml
Method: as §1

[1] = Human immunodeficiency virus 1, BAL, PBMC, HIV-1 Ba-L in PBMC

CC1(C)OC(=O)C(=Cc2ccc(I)o2)C(=O)O1 [HIT #156]
% VC (HIV-1/Ba-L; 0.01 μM): 112.3% and 106.4%
RT Values (cpm), SAMPLE (HIV-1/Ba-L; 0.01 μM): 10480 cpm and 8884 cpm and 11894 cpm and 25643 cpm and 28270 cpm and 33067 cpm
% VC (HIV-1/Ba-L; 0.03 μM): 84.0% and 99.4%
RT Values (cpm), SAMPLE (HIV-1/Ba-L; 0.03 μM): 6505 cpm and 8625 cpm and 8243 cpm and 25769 cpm and 26494 cpm and 29027 cpm
% VC (HIV-1/Ba-L; 0.10 μM): 68.9% and 122.1%
RT Values (cpm), SAMPLE (HIV-1/Ba-L; 0.10 μM): 8064 cpm and 6238 cpm and 4871 cpm and 38847 cpm and 24637 cpm and 36331 cpm
% VC (HIV-1/Ba-L; 0.32 μM): 81.3% and 86.3%
RT Values (cpm), SAMPLE (HIV-1/Ba-L; 0.32 μM): 8253 cpm and 7009 cpm and 7376 cpm and 18012 cpm and 26707 cpm and 25800 cpm
% VC (HIV-1/Ba-L; 1.00 μM): 64.5% and 85.3%
RT Values (cpm), SAMPLE (HIV-1/Ba-L; 1.00 μM): 9732 cpm and 5647 cpm and 2583 cpm and 21965 cpm and 22751 cpm and 25042 cpm
% VC (HIV-1/Ba-L; 3.16 μM): 27.9% and 43.2%
RT Values (cpm), SAMPLE (HIV-1/Ba-L; 3.16 μM): 6132 cpm and 1058 cpm and 586 cpm and 6829 cpm and 9899 cpm and 18609 cpm
% VC (HIV-1/Ba-L; 10.0 μM): 6.4% and 12.6%
RT Values (cpm), SAMPLE (HIV-1/Ba-L; 10.0 μM): 635 cpm and 579 cpm and 575 cpm and 9437 cpm and 247 cpm and 585 cpm
% VC (HIV-1/Ba-L; 31.6 μM): 1.6% and 2.3%
RT Values (cpm), SAMPLE (HIV-1/Ba-L; 31.6 μM): 54 cpm and 94 cpm and 290 cpm and 120 cpm and 1345 cpm and 378 cpm
% VC (HIV-1/Ba-L; 100 μM): 0.1% and 0.0%
RT Values (cpm), SAMPLE (HIV-1/Ba-L; 100 μM): 18 cpm and 2 cpm and 0 cpm
IC50 (HIV-1/Ba-L; HIV-1 Ba-L in PBMC): 2.63 µM
IC90 (HIV-1/Ba-L; HIV-1 Ba-L in PBMC): 13.3 µM
IC 95% (HIV-1/Ba-L; HIV-1 Ba-L in PBMC): 14.0 µM and 23.3 µM
IC50 (HIV-1/Ba-L; [1]): 1.58 µM
IC90 (HIV-1/Ba-L; [1]): 8.26 µM
ANTIVIRAL INDEX (AI) 50% (HIV-1/Ba-L; TC/IC at 50%): >63.3 and >38.1
ANTIVIRAL INDEX (AI) 90% (HIV-1/Ba-L; TC/IC at 90%): >12.1 and >7.51
ANTIVIRAL INDEX (AI) 95% (HIV-1/Ba-L; TC/IC at 95%): >7.14 and >4.30
% Cell Viability (HUMAN PBMCS; 0.32 μg/ml): 97.66%
Cytotoxicity Test Values Mean OD @ 450/650 nm (HUMAN PBMCS; 0.32 μg/ml): 1.094 OD
TOXICITY VALUES (XTT - O.D. @ 450/650 nm), SAMPLE (HUMAN PBMCS; 0.32 μg/ml): 1.0465 O.D. (2×) and 1.1893 O.D.
% Cell Viability (HUMAN PBMCS; 1 μg/ml): 99.50%
Cytotoxicity Test Values Mean OD @ 450/650 nm (HUMAN PBMCS; 1 μg/ml): 1.115 OD
TOXICITY VALUES (XTT - O.D. @ 450/650 nm), SAMPLE (HUMAN PBMCS; 1 μg/ml): 1.1281 O.D. (2×) and 1.0879 O.D.
% Cell Viability (HUMAN PBMCS; 3.16 μg/ml): 87.52%
Cytotoxicity Test Values Mean OD @ 450/650 nm (HUMAN PBMCS; 3.16 μg/ml): 0.980 OD
TOXICITY VALUES (XTT - O.D. @ 450/650 nm), SAMPLE (HUMAN PBMCS; 3.16 μg/ml): 0.9762 O.D. (2×) and 0.9889 O.D.
% Cell Viability (HUMAN PBMCS; 9.99 μg/ml): 89.00%
Cytotoxicity Test Values Mean OD @ 450/650 nm (HUMAN PBMCS; 9.99 μg/ml): 0.997 OD
TOXICITY VALUES (XTT - O.D. @ 450/650 nm), SAMPLE (HUMAN PBMCS; 9.99 μg/ml): 1.1309 O.D. (2×) and 0.7293 O.D.
% Cell Viability (HUMAN PBMCS; 31.6 μg/ml): 12.90%
Cytotoxicity Test Values Mean OD @ 450/650 nm (HUMAN PBMCS; 31.6 μg/ml): 0.145 OD
TOXICITY VALUES (XTT - O.D. @ 450/650 nm), SAMPLE (HUMAN PBMCS; 31.6 μg/ml): 0.1469 O.D. (2×) and 0.1399 O.D.
% Cell Viability (HUMAN PBMCS; 100 μg/ml): 14.76%
Cytotoxicity Test Values Mean OD @ 450/650 nm (HUMAN PBMCS; 100 μg/ml): 0.165 OD
TOXICITY VALUES (XTT - O.D. @ 450/650 nm), SAMPLE (HUMAN PBMCS; 100 μg/ml): 0.1657 O.D. (2×) and 0.1646 O.D.
TC 25% (HUMAN PBMCS; human PBMCs, XTT): 12.3 µg/mL (≈ 35.3 µM)
TC50 (TC 50%) (HUMAN PBMCS; human PBMCs, XTT): 18.0 µg/mL (≈ 51.7 µM)
TC 95% (HUMAN PBMCS; human PBMCs, XTT): <100 µg/mL
% Virus Control (HIV-1 92/HT/599): 93.58%
Antiviral Test Values Mean RLU (HIV-1 92/HT/599): 18048.7 RLU
